The assay deals with DOHH2 cells. Briefly: Cell proliferation assay (MTS), DOHH2 cells, 120 h. The class given is cell-based. The note with it: Homo sapiens, DOHH-2, 120 h. The text has this:
Cell Proliferation Assays
MTS testing kit was purchased from Promega. The RPMI-1640, Fetal bovine serum and Penicillin-Streptomycin were purchased from Gibco. Dimethyl sulfoxide (DMSO) was purchased from Sigma.
To investigate whether a compound is able to inhibit the activity of BCL-2 in cells, a mechanism-based assay using DOHH2 (DSMZ No.® ACC 47) and RS4;11 (ATCC® CRL-1873™) cell was developed. In this assay, inhibition of Bcl-2 was detected by the inhibition of DOHH2 cells proliferation. DOHH2 cells were cultured in culture flasks to 40-80% confluence in RPMI-1640 plus 10% fetal bovine serum. Cells were collected and plated onto 96-well plates at desired cell density (5000 cells/well). Plates were incubated overnight at 37° C., with 5% CO2 to adhere. Compounds were added to the plates, and the final compound concentrations were 10000, 3333, 1111, […], 124, 41, 14, 4.6 and 1.5 nM. Plates plated with DOHH2 or RS4;11 cells were placed at 37° C., with 5% CO2 for 120 h (DOHH2) or 72 h (RS4;11) respectively. 20 μl MTS/100 μl medium mixture solution were added to each well and incubate the plates for exactly 2 hours. The reaction was stopped by adding 25 μl 10% SDS per well. Measure absorbance at 490 nm and 650 nm (reference wavelength). IC50 was calculated using GraphPad Prism 5.0.
Select compounds prepared as described above were assayed according to the biological procedures described herein.
In general, IC50 refers to the concentration that gives 50% inhibition. `CC1(C)CCC(CN2CCN(c3ccc(C(=O)NS(=O)(=O)c4cc5c(c([N+](=O)[O-])c4)N[C@H](c4ccc(F)cn4)CO5)c(Oc4cnc5[nH]ccc5c4)c3)CC2)=C(c2ccc(Cl)cc2)C1` [Example 2-178, (R)-2-((1H-pyrrolo[2,3-b]pyridin-5-yl)oxy)-4-(4-((4′-chloro-5,5-dimethyl-3,4,5,6-tetra-hydro-[1,1′-biphenyl]-2-yl)methyl)piperazin-1-yl)-N-((3-(5-fluoropyridin-2-yl)-5-nitro-3,4-dihydro-2H-benzo[b][1,4]oxazin-7-yl)sulfonyl)benzamide] had an IC50 of 28 nM.

`CC1(C)CCC(CN2CCN(c3ccc(C(=O)NS(=O)(=O)c4cc5c(c([N+](=O)[O-])c4)N[C@@H](Cc4ccccc4Cl)CO5)c(Oc4cnc5[nH]ccc5c4)c3)CC2)=C(c2ccc(Cl)cc2)C1` [Example 2-191, (S)-2-((1H-pyrrolo[2,3-b]pyridin-5-yl)oxy)-4-(4-((4′-chloro-5,5-dimethyl-3,4,5,6-tetra-hydro-[1,1′-biphenyl]-2-yl)methyl)piperazin-1-yl)-N-((3-(2-chlorobenzyl)-5-nitro-3,4-dihydro-2H-benzo[b][1,4]oxazin-7-yl)sulfo-nyl)benzamide] had an IC50 of 153 nM.

For `CC1(C)CCC(CN2CCN(c3ccc(C(=O)NS(=O)(=O)c4cc5c(c([N+](=O)[O-])c4)N[C@@H](c4ccc(F)cn4)CO5)c(Oc4cnc5[nH]ccc5c4)c3)CC2)=C(c2ccc(Cl)cc2)C1` [Example 2-197, (S)-2-((1H-pyrrolo[2,3-b]pyridin-5-yl)oxy)-4-(4-((4′-chloro-5,5-dimethyl-3,4,5,6-tetra-hydro-[1,1′-biphenyl]-2-yl)methyl)piperazin-1-yl)-N-((3-(5-fluoropyridin-2-yl)-5-nitro-3,4-dihydro-2H-benzo[b][1,4]oxazin-7-yl)sulfonyl)benzamide], the midpoint of inhibition, the IC50, lay at 412 nM.

For `CC1(C)CCC(CN2CCN(c3ccc(C(=O)NS(=O)(=O)c4cc5c(c([N+](=O)[O-])c4)N[C@@H](c4ccc(Cl)cn4)CO5)c(Oc4cnc5[nH]ccc5c4)c3)CC2)=C(c2ccc(Cl)cc2)C1` [Example 2-198B, (S)-2-((1H-pyrrolo[2,3-b]pyridin-5-yl)oxy)-4-(4-((4′-chloro-5,5-dimethyl-3,4,5,6-tetra-hydro-[1,1′-biphenyl]-2-yl)methyl)piperazin-1-yl)-N-((3-(5-chloropyridin-2-yl)-5-nitro-3,4-dihydro-2H-benzo[b][1,4]oxazin-7-yl)sulfonyl)benzamide], the IC50 was 444 nM.

Take `CC1(C)CCC(CN2CCN(c3ccc(C(=O)NS(=O)(=O)c4cc5c(c([N+](=O)[O-])c4)N[C@@H](Cc4ccc(Cl)cc4)CO5)c(Oc4cnc5[nH]ccc5c4)c3)CC2)=C(c2ccc(Cl)cc2)C1` [Example 2-207, (S)-2-((1H-pyrrolo[2,3-b]pyridin-5-yl)oxy)-4-(4-((4′-chloro-5,5-dimethyl-3,4,5,6-tetra-hydro-[1,1′-phenyl]-2-yl)methyl)piperazin-1-yl)-N-((3-(4-chlorobenzyl)-5-nitro-3,4-dihydro-2H-benzo[b][1,4]oxazin-7-yl)sulfo-nyl)benzamide]: the IC50 was 402 nM.

For the compound `CC1(C)CCC(CN2CCN(c3ccc(C(=O)NS(=O)(=O)c4cc5c(c([N+](=O)[O-])c4)N[C@H](c4ccc(Cl)cn4)CO5)c(Oc4cnc5[nH]ccc5c4)c3)CC2)=C(c2ccc(Cl)cc2)C1` [Example 2-217, (R)-2-((1H-pyrrolo[2,3-b]pyridin-5-yl)oxy)-4-(4-((4′-chloro-5,5-dimethyl-3,4,5,6-tetra-hydro-[1,1′-biphenyl]-2-yl)methyl)piperazin-1-yl)-N-((3-(5-chloropyridin-2-yl)-5-nitro-3,4-dihydro-2H-benzo[b][1,4]oxazin-7-yl)sulfonyl)benzamide], the IC50 is 715 nM.

(Values after US11091478B2 (Fochon Pharmaceuticals, Ltd., priority 2017, dated 2021).)
